Paper PMC6320925, “Synthesis, In Vitro Biological Evaluation, and Oxidative Transformation of New Flavonol Derivatives: The Possible Role of the Phenyl-N,N-Dimethylamino Group” (Molecules, 2018)

Assays:
[1] = DPPH radical scavenging assay; conditions: from inhibition percentage at 90 min, concentration range 10–200 µM
Method: The method used for the DPPH radical scavenging assay was adopted from Clarke et al., with modifications. A total of 180 µL freshly made 0.2 mM DPPH solution in methanol was added to 20 µL of the investigated compounds in various concentrations (10, 20, 50, 100, and 200 µM) in DMSO. After a gentle, 10-s mixing period, the plate was kept in the dark for 90 min. and the absorbance was read at 515 nm using a Multiskan GO microplate spectrophotometer (Thermo Fisher Scientific, Waltham, MA, USA) at 0, 1, 2, 3, 4, 5, 10, 15, 30, 45, 60, 75, and 90 min. Blanks (20 µL DMSO with 180 µL MeOH) and quercetin standards in the same concentration as the tested compounds were measured simultaneously. The IC50 values were calculated based on the inhibition percentage measured at 90 min. The measurements were performed in duplicate and repeated three times.

[2] = FRAP assay (ferric reducing antioxidant power); conditions: all tested concentrations (10–200 µM), 30 min incubation
Method: The ferric reducing antioxidant power of the compounds was tested with a modified method of Benzie and Strain [37]. The FRAP reagent consisted of 10 mL acetate buffer (300 mM, pH 3.6), 1 mL TPTZ solution (10 mM) in 40 mM HCl, and 1 mL FeCl3 (10 mM). The mixture was incubated at 37 °C for 15 min and used on the same day. The reaction mixture was prepared by 20 µL of the investigated compound (10, 20, 50, 100, and 200 µM) and 180 µL activated FRAP reagent in a 96-well plate. Following a 30 min incubation period, the absorbance was measured at 593 nm by a Multiskan GO microplate spectrophotometer (Thermo Fisher Scientific, Waltham, MA, USA). Iron (II) sulfate heptahydrate was used as the standard in different concentrations (0.5, 1, 5, 10, 50, 100, and 500 µM). The FRAP values are expressed as µM ferrous equivalents. The experiments were run in duplicate and repeated three times.

[3] = ORAC assay (oxygen radical absorbance capacity); conditions: for ORAC value compared to quercetin: 10 µM; for ORAC value (AUCnet): 2 and 10 µM
Method: The oxygen radical absorbance capacity was evaluated using the ORAC assay. The test was carried out in a black 96-well plate with a black bottom. The stock solutions of 50 nM fluorescein and 180 mM AAPH in phosphate buffer (75 mM, pH 7.00) were prepared freshly and used on the same day. To each well, 20 µL of compound in ACN (2 and 10 µM) was added to 160 µL fluorescein. In the case of blank samples, 20 µL of ACN was added. The plate was incubated for 15 min at 37 °C, and then the 20 µL AAPH solution was rapidly added to each well to initiate the reaction. The fluorescence was monitored at 485 nm excitation and 520 nm emission wavelength for 2 h every 2 min by the FLUOstar OPTIMA (BMG Labtech, Ortenberg, Germany) plate reader. The assay was performed in duplicate and repeated three times. The area under the curve (AUC) was calculated as follows:AUC = 0.5 + (A1/A0) + (A2/A0) + (A3/A0) + ⋯ + (An/A0),(1) where A0 is the fluorescence reading at 0 min and An is the fluorescence reading at n min. The reported ORAC values were calculated by subtracting the blank AUC from the sample AUC and expressed as AUCnet. AUCnet = AUCsample − AUCblank(2)

[4] = test system: H9c2 cells; assay: MTT cell viability assay; format: cell-based; conditions: 20 µM, 12 h
Method: (§1) The MTT assay was used to determine the effect of the investigated compounds on the cell viability. H9c2 cells (ATCC, CRL-1446, LGC Standards GmbH, Wesel, Germany) were seeded into 96-well plates at a density of 6000 cells/well in 200 µL media (DMEM, high glucose, pyruvate from Thermo Fischer Scientific with 10% FBS and supplemented with penicillin and streptomycin) and cultured overnight. The flavonols were added to the cells in 20 µM concentration. After 12 h, 20 μL of MTT solution ([…] in PBS) was added to each well, and the plates were incubated for 4 h. Afterwards, the media was carefully removed and 100 μL DMSO was added to each well to dissolve the formazan crystals. Absorbance was measured at 540 and 630 nm using a Synergy HT plate reader (BioTek, Winooski, VT, USA). The tests were carried out in triplicate and repeated two times.

[5] = MTT cell viability assay; format: cell-based; conditions: rat, H9c2 cells, read-out: cell viability compared to the control
Method: as §1

[6] = ABTS radical scavenging assay; conditions: from inhibition percentage at 120 min, concentration range 10–200 µM
Method: To measure the ABTS radical scavenging activity, the work of Sugahara et al. and Re et al. was followed closely, applying few alterations. A mixture containing 7 mM ABTS and 2.45 mM K2S2O8 in water was kept in the dark for 16 h to form ABTS^•+. The working solution was prepared by adding 150 µL of ABTS^•+ solution to 2.9 mL MeOH. Aliquots of 180 µL of this working solution were pipetted into wells containing 20 µL of test samples in DMSO with different concentrations (10, 20, 50, 100, and 200 µM). Absorbance was measured at 737 nm after 10 s mixing using a Multiskan GO microplate spectrophotometer (Thermo Fisher Scientific, Waltham, MA, USA) at 0, 1, 2, 3, 4, 5, 10, 15, 30, 45, 60, 75, 90, 105, and 120 min. Quercetin was used as the standard. The IC50 values were calculated based on the inhibition percentage measured at 120 min. The experiments were carried out in duplicate and repeated three times.

[7] = Chemical Fenton reaction (biomimetic model of phase I biotransformation); format: in vitro ADME; conditions: ESI-MS and LC-MS detection
Method: The Fenton reaction of the compounds was carried out based on a method reported previously by Csepanyi et al.. The reaction mixture consisted of 400 μL 2.5 mM of the investigated compound in ACN, 50 μL 20 mM FeCl3, 50 μL 20 mM EDTA-Na2, and 500 μL 10 mM ascorbic acid in ACN/H2O (50:50) and 2 μL 30% hydrogen peroxide. The reaction mixture was stirred at room temperature at 700 rpm. Samples were drawn at 2, 24, 72, and 144 h and were diluted with ACN/H2O (50:50) and analyzed immediately by an API 2000 Triple Quadrupole mass spectrometer (Applied Biosystems, Waltham, MA, USA) equipped with a syringe pump with the following parameters: 20 μL/min flow rate, 10 PSI curtain gas, 20 V declustering potential, 4000 V ion spray voltage, 400 V focusing potential, and 200 °C ion source temperature. The positive ion electrospray mass spectra were recorded in the range of m/z 100–500 using Analyst 1.5.1. Software (AB SCIEX, Concord, ON, Canada). In additional experiments, the reaction mixture was separated and analyzed with an LTQ XL linear ion trap mass spectrometer coupled with the Accela LC system (Thermo Fisher Scientific, Waltham, MA, USA). The HPLC separation was performed using a Kinetex XB-C18 2.6 μm column, 0.1% formic acid in water, and ACN with 0.1% formic acid with gradient elution, and the flow rate was set to 300 μL/min. […]

[8] = parameters: method as in ref 29 (Deng et al.); conditions: ref 29 (Deng et al.); cited from earlier work
[9] = parameters: method as in ref 20 (Culhaoglu et al.); conditions: ref 20 (Culhaoglu et al.); cited from earlier work
[10] = parameters: method as in ref 20 (Culhaoglu et al.); conditions: ref 20 (Culhaoglu et al.); cited from earlier work; remark: listed apart in the source
[11] = parameters: method as in PMID 28383511; conditions: cited from earlier work

IC50 DPPH scavenging [1] | melting point [°C] | Structure (SMILES) | FRAP value [2] | ORAC value (AUCnet) [3] | cytotoxic activity (cell viability) [4] | other results
lower antioxidant potency | 179.5 to 181.8 | COc1cc(-c2oc3cc(-c4cccc(N(C)C)c4)ccc3c(=O)c2O)cc(OC)c1OC [6e, 7-[3-(Dimethylamino)phenyl]-3-hydroxy-2-(3,4,5-trimethoxyphenyl)-4H-chromen-4-one] | highest FRAP values | highest ORAC value | did not exhibit cytotoxic activity | ORAC value compared to quercetin [3]: comparable to quercetin
lower antioxidant potency | 208.1 to 209.2 | COCc1ccc(-c2ccc3c(=O)c(O)c(-c4cc(OC)c(OC)c(OC)c4)oc3c2)cc1 [6f, 3-Hydroxy-7-[4-(methoxymethyl)phenyl]-2-(3,4,5-trimethoxyphenyl)-4H-chromen-4-one] | significantly lower ferrous equivalents |  | significantly decreased the viability of cells | 
 | 212.1 to 214.2 | COCc1ccc(-c2ccc3c(=O)c(O)c(-c4ccc(OC)c(OC)c4)oc3c2)cc1 [6d, 2-(3,4-Dimethoxyphenyl)-3-hydroxy-7-[4-(methoxymethyl)phenyl]-4H-chromen-4-one] | significantly lower ferrous equivalents |  | significantly decreased the viability of cells | viability at 12 h, 20 µM [5]: 46%
 | 192.8 to 194.3 | COCc1ccc(-c2ccc3oc(-c4ccc(OC)c(OC)c4)c(O)c(=O)c3c2)cc1 [6b, 2-(3,4-Dimethoxyphenyl)-3-hydroxy-6-[4-(methoxymethyl)phenyl]-4H-chromen-4-one] | significantly lower ferrous equivalents | highest ORAC value | significantly decreased the viability of cells | 
 | 187.7 to 188.8 | COc1ccc(-c2oc3ccc(-c4cccc(N(C)C)c4)cc3c(=O)c2O)cc1OC [6a, 2-(3,4-Dimethoxyphenyl)-6-[3-(dimethylamino)phenyl]-3-hydroxy-4H-chromen-4-one] | highest FRAP values | highest ORAC value | did not exhibit cytotoxic activity | ORAC value compared to quercetin [3]: comparable to quercetin
lowest IC50 value |  | COc1ccc(-c2oc3cc(-c4cccc(N(C)C)c4)ccc3c(=O)c2O)cc1OC [6c, 2-(3,4-Dimethoxyphenyl)-7-[3-(dimethylamino)phenyl]-3-hydroxy-4H-chromen-4-one] | highest FRAP values | fourth highest capacity | did not exhibit cytotoxic activity | IC50 ABTS radical cation scavenging [6]: lowest IC50 value; oxidative transformation products (potential metabolites) [7]: two potential metabolites were detected
 |  | O=c1c(O)c(-c2ccc(O)c(O)c2)oc2cc(O)cc(O)c12 [quercetin] |  |  |  | FRAP value relative to the methylated form [8]: 650 times
 |  | CN(C)c1ccc(-c2oc3ccccc3c(=O)c2O)cc1 [4′-N,N-dimethylamino-3-OH-flavon] |  |  |  | scavenging of ABTS radicals [9]: significant scavenging; scavenging of DPPH radicals [10]: significant scavenging
 |  | CN(C)c1ccc(-c2cc(=O)c3ccccc3o2)cc1 [4′-N,N-dimethylamino-flavon] |  |  |  | radical scavenger activity [11]: good radical scavenger
